IC50 data for 24 compounds are collected here from patent publication US20250129095A1, “ANNULATED 2-AMINO-3-CYANO THIOPHENES AND DERIVATIVES FOR THE TREATMENT OF CANCER” (Boehringer Ingelheim Int'l GmbH Corp., priority 2021, published 2025).

One assay deals with T1, KRAS (G12D)::SOS1 (Homo sapiens, UniProt P01116, G12D).
T1 construct: KRAS (G12D) 1-169, N-terminal 6His-tag, C-terminal avi-tag; 6His-tag (N); purchased Xtal BioStructures, Inc. (KRAS); Viva Biotech Ltd (SOS1)
The experiment in a line: KRAS::SOS1 AlphaScreen binding assay, KRAS G12D. As to conditions: read-out: KRASG12D IC50. An excerpt:
This assay can be used to examine the potency with which compounds according to the invention binding to (mutated) KRAS inhibit the protein-protein interaction between SOS1 and (mutated) KRAS e.g., KRAS WT, KRAS G12C, KRAS G12D, KRAS G12V, KRAS G13D. […] Low IC50 values in this assay setting are indicative of strong inhibition of protein-protein interaction between SOS1 and KRAS:
These assays measure the inhibitory effect of compounds on KRAS mutant protein-protein interactions using the Alpha Screen technology by Perkin Elmer
The following (mutant) enzyme forms of KRAS and interacting proteins are used in these assays at the given concentrations: • KRAS (G12D) 1-169, N-terminal 6His-tag, C-terminal avi-tag (Xtal BioStructures, Inc.); final assay concentration 10 nM and SOS1 564-1049, N-terminal 229 GST-tag, TEV cleavage site (Viva Biotech Ltd); final assay concentration 5 nM; • KRAS (G12C) 1-169, N-terminal 6His-tag for purification, cleaved off, C-terminal avi-tag, biotinylated, mutations: C51S, C80L, C118S (in house); final assay concentration 7.5 nM and SOS1 564-1049, N-terminal 229 GST-tag, TEV cleavage site (Viva Biotech Ltd); final assay concentration 5 nM; • KRAS (G12V) 1-169, N-terminal 6His-tag for purification, cleaved off, C-terminal avi-tag, biotinylated, TEV cleavage site, mutation: C118S, GDP loaded (in house); final assay concentration 10 nM and SOS1 564-1049, N-terminal 229 GST-tag, TEV cleavage site (Viva Biotech Ltd); final assay concentration 10 nM; • KRAS (G13D) 1-169, N-terminal 6His-tag for purification, cleaved off, C-terminal avi-tag, biotinylated, TEV cleavage site, mutation: C118S, GDP loaded (in house); final assay concentration 10 nM and SOS1 564-1049, N-terminal 229 GST-tag, TEV cleavage site (Viva Biotech Ltd); final assay concentration 10 nM; • KRAS (WT) 1-169, N-terminal 6His-tag for purification, cleaved off, C-terminal avi-tag, biotinylated, TEV cleavage site, mutation: C118S, GDP loaded (in house); final assay concentration 10 nM and SOS1 564-1049, N-terminal 229 GST-tag, TEV cleavage site (Viva Biotech Ltd); final assay concentration 10 nM.
Test compounds dissolved in DMSO are dispensed onto assay plates (Proxiplate 384 PLUS, white, PerkinElmer; 6008289) using an Access Labcyte Workstation with the Labcyte Echo 55×. For the chosen highest assay concentration of 100 μM, 150 nL of compound solution are transferred from a 10 mM DMSO compound stock solution. A series of eleven fivefold dilutions per compound are transferred to the assay plate, compound dilutions are tested in duplicates. DMSO are added as backfill to a total volume of 150 nL.
The assays run on a fully automated robotic system in a darkened room below 100 Lux. To 150 nl of compound dilution 10 μl of a mix including KRAS mutant protein, SOS1 (final assay concentrations see above) and GDP nucleotide (Sigma G7127; final assay concentration 10 μM) in assay buffer (1×PBS, 0.1% BSA, 0.05% Tween 20) are added into columns 1-24.
After 30 minutes incubation time 5 μl of Alpha Screen bead mix in assay buffer are added into columns 1-23. Bead mix consists of AlphaLISA Glutathione Acceptor Beads (PerkinElmer, Cat No AL109) and AlphaScreen Streptavidin Donor Beads (PerkinElmer Cat No 6760002) in assay buffer at a final assay concentration of 10 μg/ml each.
Plates are kept at room temperature in a darkened incubator. After an additional 60 minutes incubation time the signal is measured in a PerkinElmer Envision HTS Multilabel Reader using the AlphaScreen specs from PerkinElmer.
Each plate contains up to 16 wells of a negative control depending on the dilution procedure (platewise or serial) (DMSO instead of test compound; with KRAS mutant::SOS1 GDP mix and bead mix; column 23) and 16wells of a positive control (DMSO instead of test compound; with KRAS mutant::SOS1 GDP mix w/o bead mix; column 24).
As internal control known inhibitors of KRAS mutant::SOS1 interaction can be measured on each compound plate. […]
For orientation: Alpha assays give light when donor and acceptor beads are brought close together.

The next assay relates to AsPC-1 cells. The experiment in a line: AsPC-1 CTG proliferation assay (120 h) (pancreatic cancer, G12D). As to conditions: Homo sapiens, ASPC1. The class given is cell-based. The procedure:
The CTG assay is designed to measure quantitatively the proliferation of AsPC-1 cells (ATCC CRL-5985), using the CellTiter Glow Assay Kit (Promega G7571). Cells are grown in RPMI medium (ATCC) supplemented with Fetal Calf Serum (Life Technologies, Gibco BRL, Cat. No. 10270-106). On “day 0” 2000 AsPC-1 cells are seeded in 60 μL RPMI ATCC+10% FCS+ Penstrep in a 384-well plate, flat and clear bottom (Greiner, PNr. 781091). Cells are then incubated in the plates at 37° C. in a CO2 incubator overnight. On day 1, compounds (10 mM stock in DMSO) are added with the ECHO acoustic liquid handler system (Beckman Coulter), including DMSO controls. Plates are incubated for 120 h, and cell viability is measured using CellTiter-Glo luminescent cell viability reagent (Promega product code G7570). Viability (stated as percent of control) is defined as relative luminescence units RLU of each well divided by the RLU of cells in DMSO controls.

For the next assay, the system named is NCI-H358 cells. The experiment in a line: NCI-H358 CTG proliferation assay (120 h) (NSCLC, G12C). The class given is cell-based. As to conditions: Homo sapiens. As to the method:
Additional Proliferation Assays with Mutant Cancer Cell Lines • NCI-H358 CTG proliferation assay (120 h) (NSCLC, G12C)
NCI-H358 cells (ATCC No. CRL-5807) are dispensed into black 384-well plates, flat and clear bottom (Greiner, PNr. 781091) at a density of 200 cells per well in 60 μl RPMI-1640 ATCC-Formulation (Gibco #A10491)+10% FCS (fetal calf serum). […] For the TO time point measurement, untreated cells are analyzed at the time of compound addition. Plates are incubated for 120 h, and cell viability is measured using CellTiter-Glo luminescent cell viability reagent (Promega product code G7570). Viability (stated as percent of control) is defined as relative luminescence units RLU of each well divided by the RLU of cells in DMSO controls.

T1 sequence (P01116 1-169 isoform P01116-2 G12D): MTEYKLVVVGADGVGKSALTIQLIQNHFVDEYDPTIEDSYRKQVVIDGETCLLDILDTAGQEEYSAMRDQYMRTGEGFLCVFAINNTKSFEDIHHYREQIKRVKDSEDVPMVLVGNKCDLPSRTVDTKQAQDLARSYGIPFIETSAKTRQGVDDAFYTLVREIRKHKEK

For orientation: IC50 means the concentration at which inhibition is half-maximal. As for `C[C@H](Oc1cc(OCCO)nc(-c2noc3c2CCC[C@@]32CCCc3sc(N)c(C#N)c32)n1)[C@@H]1CCCN1C` [II-6], the IC50 at KRAS (G12D)::SOS1 was 1 nM; in the assay with AsPC-1 cells, 1760 nM; in the assay on NCI-H358 cells, 165 nM.
Consider `C[C@H](Oc1cc(Oc2nccs2)nc(-c2onc3c2CCC[C@@]32CCCc3sc(N)c(C#N)c32)n1)[C@@H]1CCCN1C` [Example I-1], for which the IC50 came out at 2 nM at KRAS (G12D)::SOS1 and 2500 nM in the assay with AsPC-1 cells.
Regarding `C[C@H](Oc1cc(Oc2nccs2)nc(-c2noc3c2CCC[C@@]32CCCc3sc(N)c(C#N)c32)n1)[C@@H]1CCCN1C` [II-2], the results for the IC50 at KRAS (G12D)::SOS1, in the assay with AsPC-1 cells and in the assay on NCI-H358 cells were 2 nM, 1840 nM and 115 nM, respectively.
On to `C[C@H](Oc1cc(Nc2ncccn2)nc(-c2noc3c2CCC[C@@]32CCCc3sc(N)c(C#N)c32)n1)[C@@H]1CCCN1C` [II-17], for which the results for the IC50 at KRAS (G12D)::SOS1, with AsPC-1 cells and with NCI-H358 cells were 2 nM, 2720 nM and 775 nM, respectively.
For the compound `C[C@H](Oc1cc(Oc2cnccn2)nc(-c2noc3c2CCC[C@@]32CCCc3sc(N)c(C#N)c32)n1)[C@@H]1CCCN1C` [II-7], the IC50 on KRAS (G12D)::SOS1 was found to be 1 nM; in the assay with AsPC-1 cells, 3000 nM.
For `C[C@H](Oc1cc(O[C@H]2CNC(C)(C)C2)nc(-c2noc3c2CCC[C@@]32CCCc3sc(N)c(C#N)c32)n1)[C@@H]1CCCN1C` (single isomer, unassigned) [II-8], the IC50 at KRAS (G12D)::SOS1 came out at 1 nM; with AsPC-1 cells it was 1720 nM; with NCI-H358 cells, 1180 nM.
For `C[C@H](Oc1cc(N[C@H]2CCOC2)nc(-c2onc3c2CCC[C@@]32CCCc3sc(N)c(C#N)c32)n1)[C@@H]1CCCN1C` [Example I-4] the same measures were 4 nM, 9470 nM and 2280 nM.
For the compound `C[C@H](Oc1cc(Nc2ccccn2)nc(-c2noc3c2CCC[C@@]32CCCc3sc(N)c(C#N)c32)n1)[C@@H]1CCCN1C` [II-16], the IC50 on KRAS (G12D)::SOS1 is 3 nM; in the assay with NCI-H358 cells, 440 nM.
As to `C[C@H](Oc1cc(O[C@H]2CCOC2)nc(-c2noc3c2CCC[C@@]32CCCc3sc(N)c(C#N)c32)n1)[C@@H]1CCCN1C` [II-4], the IC50 on KRAS (G12D)::SOS1 was found to be 2 nM; in the assay on AsPC-1 cells, 2750 nM; with NCI-H358 cells it was 193 nM.
For `C[C@H](Oc1cc(O[C@@H]2CNC[C@@H]2F)nc(-c2noc3c2CCC[C@@]32CCCc3sc(N)c(C#N)c32)n1)[C@@H]1CCCN1C` [II-29], the IC50 on KRAS (G12D)::SOS1 is 1 nM; in the assay on AsPC-1 cells, 430 nM; with NCI-H358 cells, 36 nM.
With `C[C@H](Oc1cc(Nc2nccs2)nc(-c2noc3c2CCC[C@@]32CCCc3sc(N)c(C#N)c32)n1)[C@@H]1CCCN1C` [II-12], the figures for the IC50 at KRAS (G12D)::SOS1, in the assay on AsPC-1 cells and with NCI-H358 cells were 6 nM, 2920 nM and 819 nM, respectively.
As for `C[C@H](Oc1cc(O[C@@H]2CNC2(C)C)nc(-c2noc3c2CCC[C@@]32CCCc3sc(N)c(C#N)c32)n1)[C@@H]1CCCN1C` [II-9], the IC50 at KRAS (G12D)::SOS1 turned out to be 1 nM; in the assay on AsPC-1 cells, 49 nM; with NCI-H358 cells it was 69 nM.
As for `CO[C@@H]1C[C@@H]([C@H](C)Oc2cc(O[C@@H]3CNC3(C)C)nc(-c3noc4c3CCC[C@@]43CCCc4sc(N)c(C#N)c43)n2)N(C)C1` [II-30], the IC50 on KRAS (G12D)::SOS1 amounted to 1 nM; in the assay with AsPC-1 cells, 36 nM; in the assay with NCI-H358 cells, 85 nM.
Take `C[C@H](Oc1cc(Nc2cccnn2)nc(-c2noc3c2CCC[C@@]32CCCc3sc(N)c(C#N)c32)n1)[C@@H]1CCCN1C` [II-18]: the values for the IC50 at KRAS (G12D)::SOS1, with AsPC-1 cells and with NCI-H358 cells were 2 nM, 3010 nM and 430 nM, respectively.
The like results for `C[C@H](Oc1cc(Oc2cncnc2)nc(-c2noc3c2CCC[C@@]32CCCc3sc(N)c(C#N)c32)n1)[C@@H]1CCCN1C` [II-1] were, in that order, 1 nM, 699 nM and 178 nM.
As for `C[C@H](Oc1cc(OCC2(N(C)C)COC2)nc(-c2noc3c2CCC[C@@]32CCCc3sc(N)c(C#N)c32)n1)[C@@H]1CCCN1C` [II-22], the IC50 came to 1 nM on KRAS (G12D)::SOS1 and 298 nM with AsPC-1 cells.
In the case of `COc1c(OCC2(N(C)C)COC2)nc(-c2noc3c2CCC[C@@]32CCCc3sc(N)c(C#N)c32)nc1O[C@@H](C)[C@@H]1CCCN1C` [II-25], the IC50 on KRAS (G12D)::SOS1 worked out at 1 nM; in the assay on AsPC-1 cells it was 571 nM.
Take `C[C@H](Oc1cc(N(C)C)nc(-c2noc3c2CCC[C@@]32CCCc3sc(N)c(C#N)c32)n1)[C@@H]1CCCN1C` [II-10]: the values for the IC50 on KRAS (G12D)::SOS1 and in the assay with AsPC-1 cells were 2 nM and 1940 nM, respectively.
As for `C[C@H](Oc1cc(NCC2COC2)nc(-c2noc3c2CCC[C@@]32CCCc3sc(N)c(C#N)c32)n1)[C@@H]1CCCN1C` [II-11], the IC50 on KRAS (G12D)::SOS1 is 1 nM; with AsPC-1 cells, 2270 nM.
The like results for `C[C@H](Oc1cc(Oc2cncnc2)nc(-c2onc3c2CCC[C@@]32CCCc3sc(N)c(C#N)c32)n1)[C@@H]1CCCN1C` [Example I-3] were, in that order, 1 nM and 682 nM.
In the case of `C[C@H](Oc1cc(Oc2cccnc2)nc(-c2onc3c2CCC[C@@]32CCCc3sc(N)c(C#N)c32)n1)[C@@H]1CCCN1C` [Example I-2], the IC50 turned out to be 1 nM at KRAS (G12D)::SOS1 and 1310 nM with AsPC-1 cells.
Consider `C[C@H](Oc1cc(N(C)CCN(C)C)nc(-c2noc3c2CCC[C@@]32CCCc3sc(N)c(C#N)c32)n1)[C@@H]1CCCN1C` [II-20], for which the IC50 on KRAS (G12D)::SOS1 stood at 2 nM; in the assay on AsPC-1 cells it was 3580 nM.
Regarding `C[C@H](Oc1cc(OCC2(N(C)C)CC2)nc(-c2noc3c2CCC[C@@]32CCCc3sc(N)c(C#N)c32)n1)[C@@H]1CCCN1C` [II-21], the IC50 at KRAS (G12D)::SOS1 turned out to be 1 nM; in the assay on AsPC-1 cells it was 277 nM.
Consider `COC[C@H](C)Nc1cc(O[C@@H](C)[C@@H]2CCCN2C)nc(-c2onc3c2CCC[C@@]32CCCc3sc(N)c(C#N)c32)n1` [Example I-5], for which the IC50 at KRAS (G12D)::SOS1 turned out to be 12 nM.
